Data as given in publication PMC8294059, “Identification and Immune Assessment of T Cell Epitopes in Five Plasmodium falciparum Blood Stage Antigens to Facilitate Vaccine Candidate Selection and Optimization” (Frontiers in Immunology, 2021).
pIC50: −log10 of the molar value. Read-outs that look alike come from different tables or passages of the source. Where a SMILES comes first, the peptide text is derived from it.

Legend:
[1] = biological target: HLA-A*2402 (Homo sapiens, UniProt P04439, D101N/D140Y/D185E/E176V/E190D/F33S/G103R/G107R/I119L/I121M/I306V/K335N/L105A/L180Q/L300P/N151K/N90K/Q86E/Q94H/R106L/R138H/R89G/T104I/T345S/V100E/W191G/Y123F); assay: In vitro class I HLA binding assay (fluorescence polarization competition); details: allele A*2402; for IC50: fluorescence polarization competition, read-out: IC50 (nM), in vitro HLA binding affinity; for pIC50: cell-free competition, fluorescence polarization at 72 hours, Non-binder = no dose-dependent inhibition, read-out: IC50
Method in brief: (§1)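 Cell-free competition assay: HLA heat-treated 53°C for 15 min to strip endogenous peptides, then mixed with fluorescent high-affinity control peptide and test peptides for 72 h to equilibrium. Displacement read by fluorescence polarization as percent inhibition; IC50 derived from a concentration range.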

[2] = biological target: HLA-A*0101 (Homo sapiens, UniProt P04439, A114D/A174V/A182V/D101N/D185E/E176A/E190D/L180R/Q94H/R68K/S129P/T187R/V100A/V91M/W191G); assay: biochemical; format: binding; details: allele A*0101, fluorescence polarization competition
Method in brief: as §1

[3] = biological target: HLA-A*0301 (Homo sapiens, UniProt P04439); assay: biochemical; format: binding; details: allele A*0301; fluorescence polarization competition
Method in brief: as §1

Molecule | IC50 [1] [nM] | other results
N=C(N)NCCC[C@H](NC(=O)CNC(=O)[C@H](Cc1ccccc1)NC(=O)[C@@H](N)CC(N)=O)C(=O)NCC(=O)N[C@@H](CCC(N)=O)C(=O)N[C@@H](CC(N)=O)C(=O)N[C@@H](Cc1ccc(O)cc1)C(=O)N[C@@H](Cc1c[nH]c2ccccc12)C(=O)O [AMA1_020] (H-NFGRGQNYW-OH) | 229 | 
CC(C)C[C@H](NC(=O)[C@@H]1CCCN1C(=O)[C@H](Cc1ccc(O)cc1)NC(=O)[C@@H](N)CCC(=O)O)C(=O)N[C@@H](Cc1c[nH]cn1)C(=O)N[C@@H](CCC(N)=O)C(=O)N[C@@H](CCC(=O)O)C(=O)N[C@@H](Cc1c[nH]cn1)C(=O)N[C@H](C(=O)N[C@@H](Cc1ccc(O)cc1)C(=O)O)[C@@H](C)O [AMA1_052] (H-EYPLHQEHTY-OH) | 999 | 
CSCC[C@H](NC(=O)[C@H](Cc1ccc(O)cc1)NC(=O)[C@@H](N)CC(N)=O)C(=O)NCC(=O)N[C@@H](CC(N)=O)C(=O)N1CCC[C@H]1C(=O)N[C@@H](Cc1c[nH]c2ccccc12)C(=O)N[C@H](C(=O)N[C@@H](CCC(=O)O)C(=O)O)[C@@H](C)O [AMA1_104] (H-NYMGNPWTE-OH) | 37900 | 
CC(C)C[C@H](NC(=O)[C@H](Cc1ccc(O)cc1)NC(=O)[C@@H](N)CCC(N)=O)C(=O)N[C@@H](CCCCN)C(=O)N[C@@H](CC(=O)O)C(=O)NCC(=O)NCC(=O)N[C@@H](Cc1ccccc1)C(=O)N[C@@H](C)C(=O)N[C@@H](Cc1ccccc1)C(=O)O [AMA1_174] (H-QYLKDGGFAF-OH) | 41.9 | 
CC[C@H](C)[C@H](NC(=O)[C@H](CC(=O)O)NC(=O)[C@@H](N)CCC(=O)O)C(=O)N1CCC[C@H]1C(=O)N[C@@H](Cc1c[nH]cn1)C(=O)N[C@H](C(=O)N[C@@H](CC(N)=O)C(=O)N[C@@H](CCC(=O)O)C(=O)N[C@@H](Cc1ccccc1)C(=O)O)C(C)C [AMA1_321] (H-EDIPHVNEF-OH) | 83000 | 
CC[C@H](C)[C@H](NC(=O)[C@H](CC(=O)O)NC(=O)[C@H](C)NC(=O)[C@H](Cc1ccc(O)cc1)NC(=O)[C@H](CCC(=O)O)NC(=O)[C@H](CC(=O)O)NC(=O)[C@H](CCCCN)NC(=O)[C@H](Cc1ccc(O)cc1)NC(=O)[C@@H](N)CCC(=O)O)C(=O)O [AMA1_527] (H-EYKDEYADI-OH) | 2100 | 
CC[C@H](C)[C@H](NC(=O)[C@@H](N)CCSC)C(=O)N[C@H](C(=O)N1CCC[C@H]1C(=O)N[C@@H](Cc1ccccc1)C(=O)N[C@@H](Cc1c[nH]cn1)C(=O)N[C@@H](CCCCN)C(=O)N[C@@H](CCCCN)C(=O)N[C@@H](Cc1ccccc1)C(=O)O)[C@@H](C)CC [CYRPA_001] (H-MIIPFHKKF-OH) | 295 | 
CC[C@H](C)[C@H](NC(=O)[C@H](Cc1ccccc1)NC(=O)[C@H](CCCCN)NC(=O)[C@H](CCCCN)NC(=O)[C@H](Cc1c[nH]cn1)NC(=O)[C@H](Cc1ccccc1)NC(=O)[C@@H]1CCCN1)C(=O)N[C@@H](CO)C(=O)N[C@@H](Cc1ccccc1)C(=O)N[C@@H](Cc1ccccc1)C(=O)O [CYRPA_004] (H-PFHKKFISFF-OH) | 35.6 | 
CC[C@H](C)[C@H](N)C(=O)N[C@@H](Cc1ccc(O)cc1)C(=O)N[C@@H](CCCCN)C(=O)N[C@@H](CCCNC(=N)N)C(=O)N[C@@H](CCC(=O)O)C(=O)N[C@@H](CC(C)C)C(=O)N[C@@H](Cc1ccc(O)cc1)C(=O)N[C@@H](CC(N)=O)C(=O)N[C@H](C(=O)O)[C@@H](C)CC [CYRPA_055] (H-IYKRELYNI-OH) | 86.8 | 
CC(C)C[C@H](NC(=O)[C@H](CCCCN)NC(=O)[C@H](Cc1ccc(O)cc1)NC(=O)[C@@H](N)CC(N)=O)C(=O)NCC(=O)N[C@H](C(=O)N[C@@H](CCC(N)=O)C(=O)N[C@@H](Cc1ccc(O)cc1)C(=O)N[C@@H](Cc1ccccc1)C(=O)N[C@@H](Cc1ccccc1)C(=O)O)C(C)C [CYRPA_218] (H-NYKLGVQYFF-OH) | 26300 | 
CC[C@H](C)[C@H](N)C(=O)N[C@@H](Cc1ccccc1)C(=O)N[C@@H](Cc1ccccc1)C(=O)N[C@@H](CC(N)=O)C(=O)N[C@@H](CC(N)=O)C(=O)N[C@@H](CCC(=O)O)C(=O)N[C@@H](CC(N)=O)C(=O)N[C@@H](CO)C(=O)N[C@H](C(=O)O)[C@@H](C)CC [CYRPA_305] (H-IFFNNENSI-OH) | 56.9 | 
CC[C@H](C)[C@H](NC(=O)[C@H](CCCCN)NC(=O)[C@H](CC(N)=O)NC(=O)[C@H](CCC(=O)O)NC(=O)[C@H](C)NC(=O)[C@H](CCCCN)NC(=O)[C@@H](NC(=O)[C@H](CO)NC(=O)[C@H](Cc1ccc(O)cc1)NC(=O)CN)[C@@H](C)O)C(=O)O [EBA175_0255] (H-GYSTKAENKI-OH) |  | pIC50 [1]: 5.74
CC(C)C[C@H](NC(=O)[C@H](CCCCN)NC(=O)[C@H](CCCCN)NC(=O)[C@H](CC(=O)O)NC(=O)[C@H](Cc1ccc(O)cc1)NC(=O)[C@H](CC(C)C)NC(=O)[C@H](CC(N)=O)NC(=O)[C@H](Cc1ccc(O)cc1)NC(=O)[C@@H](N)CCCNC(=N)N)C(=O)O [EBA175_1316] (H-RYNLYDKKL-OH) |  | pIC50 [1]: 6.77
C[C@@H](O)[C@H](NC(=O)[C@H](Cc1ccccc1)NC(=O)[C@H](Cc1ccc(O)cc1)NC(=O)[C@@H](N)CO)C(=O)N[C@@H](Cc1ccc(O)cc1)C(=O)N[C@@H](CC(=O)O)C(=O)N[C@@H](CO)C(=O)N[C@@H](CCC(=O)O)C(=O)N[C@@H](CCC(=O)O)C(=O)N[C@@H](Cc1ccc(O)cc1)C(=O)O [EBA175_1390] (H-SYFTYDSEEY-OH) |  | pIC50 [1]: 4.65
CC[C@H](C)[C@H](NC(=O)[C@H](Cc1ccccc1)NC(=O)[C@H](CC(C)C)NC(=O)[C@H](Cc1ccc(O)cc1)NC(=O)[C@@H](N)CCCCN)C(=O)N1CCC[C@H]1C(=O)N[C@@H](CO)C(=O)N[C@@H](Cc1c[nH]cn1)C(=O)N[C@@H](CC(N)=O)C(=O)O [RH5_096] (H-KYLFIPSHN-OH) | 6120 | 
CC[C@H](C)[C@H](NC(=O)[C@H](Cc1ccccc1)NC(=O)[C@@H](N)CC(C)C)C(=O)N1CCC[C@H]1C(=O)N[C@@H](CO)C(=O)N[C@@H](Cc1c[nH]cn1)C(=O)N[C@@H](CC(N)=O)C(=O)N[C@@H](CO)C(=O)N[C@@H](Cc1ccccc1)C(=O)O [RH5_098] (H-LFIPSHNSF-OH) | 141 | 
CC[C@H](C)[C@H](NC(=O)[C@H](Cc1ccccc1)NC(=O)[C@@H](N)CO)C(=O)N[C@@H](CCCCN)C(=O)N[C@@H](CCCCN)C(=O)N[C@@H](Cc1ccc(O)cc1)C(=O)N[C@@H](CO)C(=O)N[C@H](C(=O)N[C@@H](Cc1ccccc1)C(=O)O)C(C)C [RH5_105] (H-SFIKKYSVF-OH) | 38.3 | 
CC[C@H](C)[C@H](NC(=O)[C@@H](NC(=O)[C@H](Cc1ccccc1)NC(=O)[C@@H](N)CC(=O)O)C(C)C)C(=O)N[C@H](C(=O)N1CCC[C@H]1C(=O)N[C@@H](Cc1c[nH]cn1)C(=O)N[C@@H](Cc1ccc(O)cc1)C(=O)N[C@H](C(=O)N[C@@H](Cc1ccccc1)C(=O)O)[C@@H](C)O)[C@@H](C)CC [RH5_172] (H-DFVIIPHYTF-OH) | 289 | 
C[C@@H](O)[C@H](NC(=O)[C@@H](N)CO)C(=O)N[C@@H](CS)C(=O)N[C@@H](Cc1ccc(O)cc1)C(=O)NCC(=O)N[C@@H](CC(N)=O)C(=O)N[C@@H](CCCNC(=N)N)C(=O)N[C@@H](Cc1ccccc1)C(=O)N[C@@H](CC(N)=O)C(=O)N[C@@H](Cc1ccc(O)cc1)C(=O)O [RIPR_0648] (H-STCYGNRFNY-OH) |  | IC50 ([2]; read-out: IC50 (nM), in vitro HLA binding affinity): 54000 nM; IC50 (nM), in vitro HLA binding affinity [3]: Non-binder
RTFKKMMDEY [RH5_298] |  | IC50 (nM), in vitro HLA binding affinity [2]: Non-Binder; IC50 (nM), in vitro HLA binding affinity [3]: Non-Binder
